Our source for the IC50 values is patent US20260345623A1, “NOVEL […] HETEROCYCLIC CARBALDEHYDE COMPOUND AND PHARMACEUTICAL COMPOSITION, CONTAINING SAME, FOR IRE1alpha INHIBITION” (HANMI PHARM. CO., LTD., priority 2022, published 2026).

The target of this test is T1, spliced XBP1 mRNA (target of IRE endonuclease) in MCF-7 cancer cells (Homo sapiens, UniProt O75460).
T1 construct: tunicamycin ER stress; RT-PCR of spliced XBP1 mRNA (RNase domain activity)
Kind of test: Spliced XBP1 mRNA Measurement Test (RT-PCR, tunicamycin-induced ER stress, MCF-7 cells). The class given is cell-based. Conditions: 1 hour pre-treatment with compound, 2 μg/mL tunicamycin 6 or 24 hours, spliced XBP1 corrected by total XBP1, read-out: XBP1 mRNA (IC50). The procedure: A reverse transcription polymerase chain reaction is a test method in which RNA is extracted from cells, reverse transcriptase is used to make cDNA, and relative mRNA expression level is measured through a polymerase chain reaction.
Briefly, MCF-7 cells were seeded in a 12-well plate and cultured in an incubator including 5% CO2 for one day. On the next day, compounds, which were 10-fold serially diluted from 10,000 nM, were pre-treated for 1 hour, and then, treated with 2 μg/mL tunicamycin for 6 or 24 hours to induce endoplasmic reticulum stress, followed by cell lysis to obtain RNA. RNA was subjected to the procedure of RNeasy Kits (Qiagen, 74106), and 5 μg of RNA sample was dissolved in a sample including reverse transcriptase and dNTP, and reverse transcription reaction was performed with a thermal cycler. The amount of mRNA of each of spliced XBP1 and total XBP1 was measured by a polymerase chain reaction through real time PCR by mixing each cDNA sample with a PCR reaction mixture including a primer pair capable of binding specifically to each target and SYBR green dye. The expression level of spliced XBP1 was corrected by the total expression level of XBP1, and the relative expression levels of spliced XBP1 between samples were compared and analyzed.

T1 sequence (O75460 19-977): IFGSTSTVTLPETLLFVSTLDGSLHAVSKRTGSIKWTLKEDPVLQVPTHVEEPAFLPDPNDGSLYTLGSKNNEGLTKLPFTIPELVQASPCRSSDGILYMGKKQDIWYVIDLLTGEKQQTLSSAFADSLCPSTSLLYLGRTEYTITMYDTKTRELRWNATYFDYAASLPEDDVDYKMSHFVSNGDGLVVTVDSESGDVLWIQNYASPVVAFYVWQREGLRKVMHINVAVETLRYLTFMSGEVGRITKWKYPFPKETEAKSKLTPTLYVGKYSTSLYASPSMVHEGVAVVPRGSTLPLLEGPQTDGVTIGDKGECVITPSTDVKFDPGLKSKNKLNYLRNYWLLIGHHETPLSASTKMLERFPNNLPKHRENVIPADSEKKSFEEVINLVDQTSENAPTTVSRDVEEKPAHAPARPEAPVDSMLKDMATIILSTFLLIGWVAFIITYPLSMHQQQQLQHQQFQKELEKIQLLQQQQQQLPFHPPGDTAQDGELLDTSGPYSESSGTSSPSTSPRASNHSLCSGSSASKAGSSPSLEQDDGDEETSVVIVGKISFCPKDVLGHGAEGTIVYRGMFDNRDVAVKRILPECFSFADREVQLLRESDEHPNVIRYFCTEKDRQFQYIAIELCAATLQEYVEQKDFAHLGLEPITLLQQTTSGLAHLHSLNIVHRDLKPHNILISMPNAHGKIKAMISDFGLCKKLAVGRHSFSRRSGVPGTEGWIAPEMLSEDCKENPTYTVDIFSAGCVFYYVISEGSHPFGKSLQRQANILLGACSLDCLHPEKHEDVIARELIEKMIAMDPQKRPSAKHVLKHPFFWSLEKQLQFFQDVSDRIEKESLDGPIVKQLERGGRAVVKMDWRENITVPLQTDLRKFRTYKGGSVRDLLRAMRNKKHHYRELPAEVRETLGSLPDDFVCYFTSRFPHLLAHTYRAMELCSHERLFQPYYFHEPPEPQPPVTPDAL

Turning to `Cc1c(CC(=O)N2CCSC2)c(=O)oc2c(C=O)c(O)c3c(c12)CCCO3` [Example 30, 6-hydroxy-1-methyl-3-oxo-2-(2-oxo-2-(thiazolidin-3-yl)ethyl)-3,8,9,10-tetrahydropyrano[3,2-f]chromene-5-carbaldehyde], the IC50 is under 100 nM.

Regarding `Cc1c(CC(=O)N2CCNCC2)c(=O)oc2c(C=O)c(O)c3c(c12)CCCO3` [Example 31, 6-hydroxy-1-methyl-3-oxo-2-(2-oxo-2-(piperazin-1-yl)ethyl)-3,8,9,10-tetrahydropyrano[3,2-f]chromene-5-carbaldehyde], the IC50 is over 200 nM.

A word on the IC50: it is the concentration that inhibits the measured activity by half.
